26 compounds from ChEMBL document CHEMBL4742388, “Inhibitors of cyclin-dependent kinase 7 (cdk7)” (2019) can be followed below.

In one assay the test system is HCC70. Nature of the assay: Inhibition of cell proliferation of human HCC70 cells incubated for 72 hrs by CyQUANT assay. Type of assay: functional, cell-based. To be noted: HCC70, 72 h.
In the next assay the test system is A673. Description: Inhibition of cell proliferation of human A673 cells incubated for 72 hrs by CyQUANT assay. Type of assay: functional, cell-based. As to conditions: A673, 72 h.

pIC50: −log10 of the molar value.

Turning to `Cc1[nH]ncc1-c1cccc2c(-c3nc(N[C@@H]4CCCNC4)ncc3C(F)(F)F)c[nH]c12`, the results for the pIC50 in the assay with HCC70 and with A673 were 6.00 and more than 7.70, respectively. As for `N#C[C@@H]1CCN(C(=O)c2ccc3c(-c4nc(N[C@H]5CCCNC5)ncc4C(F)(F)F)c[nH]c3c2)C1`, the negative-log IC50 (pIC50) (commonly the IC50 on a negative log10 scale, so that one unit is a factor of ten) is 7.00 in the assay with HCC70 and 7.70 in the assay on A673.

In turn, `C[C@H]1CCNC[C@@H]1Nc1ncc(C(F)(F)F)c(-c2c[nH]c3ccccc23)n1` gave a pIC50 in the assay on HCC70 of 6.00.

On to `Fc1ccc2[nH]cc(-c3nc(N[C@H]4CCCNC4)ncc3Cl)c2c1`, for which the figures for the pIC50 in the assay on HCC70 and in the assay on A673 were 7.00 and 7.70, respectively. `CS(=O)(=O)c1cccc2c(-c3nc(N[C@H]4CCCNC4)ncc3C(F)(F)F)c[nH]c12`: the results for the pIC50 in the assay on HCC70 and in the assay with A673 were more than 7.00 and more than 7.70, respectively. The compound `O=C(c1ccc2c(-c3nc(N[C@H]4CCCNC4)ncc3C(F)(F)F)c[nH]c2c1)N1CC[C@](O)(C(F)(F)F)C1` (single isomer, unassigned) gave a pIC50 with HCC70 of 6.00. `O=C(c1ccc2c(-c3nc(N[C@H]4CCCNC4)ncc3C(F)(F)F)c[nH]c2c1)N1CC[C@@](O)(C(F)(F)F)C1` (single isomer, unassigned): the pIC50 with HCC70 was 7.00.

For the compound `N#Cc1ccc2c(-c3nc(N[C@@H]4CCC5(CCC5)NC4)ncc3C(F)(F)F)c[nH]c2c1` (single isomer, unassigned), the pIC50 in the assay on HCC70 is 7.00. Same read-out and setting: as for `CC1CCNCC1Nc1ncc(C(F)(F)F)c(-c2c[nH]c3ccccc23)n1` (single isomer, unassigned), the figure is 7.00.

Turning to `Cc1cccc2c(-c3nc(N[C@H]4CCCNC4)ncc3Cl)c[nH]c12`, the results for the pIC50 with HCC70 and in the assay with A673 were more than 7.00 and more than 7.70, respectively. Consider `CC(C)c1cnc(N[C@H]2CCCNC2)nc1-c1c[nH]c2ccccc12`, for which the pIC50 with HCC70 was 6.00; with A673, 6.70. With `N#Cc1ccc2c(-c3nc(N[C@@H]4CCCNC4)ncc3C(F)(F)F)c[nH]c2c1-c1ccnnc1`, the pIC50 with HCC70 was more than 7.00; in the assay on A673, more than 7.70. In the assay on HCC70, `COC1CCN(C(=O)c2ccc3c(-c4nc(N[C@H]5CCCNC5)ncc4C(F)(F)F)c[nH]c3c2)C1` (single isomer, unassigned) had a pIC50 of 7.00. Consider `Fc1cnc2[nH]cc(-c3nc(N[C@H]4CCCNC4)ncc3C(F)(F)F)c2c1`, for which the pIC50 with HCC70 was more than 7.00; in the assay on A673, more than 7.70. Turning to `Fc1cncc(-c2ccc3c(-c4nc(N[C@H]5CCCNC5)ncc4C(F)(F)F)c[nH]c3c2)c1`, the pIC50 in the assay on HCC70 was 7.00.

Turning to `Clc1cnc(N[C@H]2CCCNC2)nc1-c1cnn2ccccc12`, the negative-log IC50 (pIC50) was 7.00 with HCC70 and 7.70 in the assay with A673.

In the case of `CC[C@]1(O)CCN(C(=O)c2ccc3c(-c4nc(N[C@H]5CCCNC5)ncc4C(F)(F)F)c[nH]c3c2)C1` (single isomer, unassigned), the pIC50 in the assay with HCC70 was 7.00. Regarding `CNC(=O)c1cccc2c(-c3nc(N[C@H]4CCCNC4)ncc3C(F)(F)F)c[nH]c12`, the pIC50 is 7.00 in the assay with HCC70 and 7.70 with A673. `Clc1cnc(N[C@H]2CCCNC2)nc1-c1c[nH]c2ncccc12`: the pIC50 in the assay on HCC70 is more than 7.00; in the assay with A673, 7.70. Take `FC(F)(F)c1cnc(N[C@H]2CCCNC2)nc1-c1c[nH]c2cnc(Cl)cc12`: the pIC50 was 7.00 in the assay on HCC70 and 7.70 in the assay with A673. Turning to `CC[C@@]1(O)CCN(C(=O)c2ccc3c(-c4nc(N[C@H]5CCCNC5)ncc4C(F)(F)F)c[nH]c3c2)C1` (single isomer, unassigned), in the assay on HCC70, the negative logarithm of the IC50 (pIC50) was 6.00. Regarding `Fc1cccc2c(-c3nc(N[C@H]4CCCNC4)ncc3Cl)c[nH]c12`, the results for the pIC50 with HCC70 and in the assay on A673 were 7.00 and more than 7.70, respectively. For the compound `N#Cc1ccc2c(-c3nc(N[C@H]4CCCNC4)ncc3Cl)c[nH]c2c1`, the figures for the pIC50 in the assay with HCC70 and in the assay with A673 were more than 7.00 and more than 7.70, respectively. In the assay on HCC70, `N#Cc1ccc2c(-c3nc(N[C@H]4CCC5(CCC5)NC4)ncc3C(F)(F)F)c[nH]c2c1` (single isomer, unassigned) had a pIC50 of 6.00. For the compound `CC1(O)CCN(C(=O)c2ccc3c(-c4nc(N[C@H]5CCCNC5)ncc4C(F)(F)F)c[nH]c3c2)C1` (single isomer, unassigned), the pIC50 in the assay with HCC70 is 7.00; in the assay with A673, 6.70. In the assay on HCC70, `CNC(=O)c1cccc2c(-c3nc(N[C@H]4CCCNC4)ncc3C(F)(F)F)cn(C)c12` had a pIC50 of 6.00.
